Experimental findings from patent publication US10081635B2, “Substituted N-(pyrrolidine-3-yl)-7H-pyrrolo[2,3-D]pyrimidine-4-amine as janus kinase inhibitor” (YANG JI CHEMICAL CO., LTD., priority 2014, dated 2018) are described below.

What all share (assay type): biochemical
In experiment [1] the target is T1, Human JAK1 (Homo sapiens (Human), UniProt P23458). In words: In vitro kinase inhibition test, JAK1 (33P-ATP filter scintillation). The following applies: compound at 1 uM; read-out: JAK1 kinase-phosphorylation inhibitory level (% inhibition).
Experiment [2] deals with T2, Human JAK2 (Homo sapiens (Human), UniProt O60674). In words: In vitro kinase inhibition test, JAK2 (33P-ATP filter scintillation). The following applies: compound at 1 uM; read-out: JAK2 kinase-phosphorylation inhibitory level (% inhibition).
Experiment [3] addresses T3, Human JAK3 (Homo sapiens (Human), UniProt P52333). Put plainly: In vitro kinase inhibition test, JAK3 (33P-ATP filter scintillation). To be noted: compound at 1 uM; read-out: JAK3 kinase-phosphorylation inhibitory level (% inhibition).
In experiment [4] the target is T4, Human TYK2 (Homo sapiens (Human), UniProt P29597). In words: In vitro kinase inhibition test, TYK2 (33P-ATP filter scintillation). The following applies: compound at 1 uM; read-out: TYK2 kinase-phosphorylation inhibitory level (% inhibition).
Experiment [5] deals with T1, Human JAK1. Put plainly: In vitro kinase inhibition test, JAK1 (33P-ATP filter scintillation).
Experiment [6] deals with T2, Human JAK2. In words: In vitro kinase inhibition test, JAK2 (33P-ATP filter scintillation).
The target of experiment [7] is T3, Human JAK3. Put plainly: In vitro kinase inhibition test, JAK3 (33P-ATP filter scintillation).
Experiment [8] deals with T4, Human TYK2. Put plainly: In vitro kinase inhibition test, TYK2 (33P-ATP filter scintillation).

As a reminder, the inhibition is the change of the read-out against control, counted positive when it falls. As a reminder, the pIC50 is −log10 of the IC50, conventionally taken in molar units. Read a low pIC50 as a large IC50.

Each structure is given as a SMILES string. pIC50: −log10 of the molar value. Counter-ions that a name gives are not always drawn. Like-named read-outs stand apart in the source and are kept apart here.

T2 sequence (O60674 whole entry): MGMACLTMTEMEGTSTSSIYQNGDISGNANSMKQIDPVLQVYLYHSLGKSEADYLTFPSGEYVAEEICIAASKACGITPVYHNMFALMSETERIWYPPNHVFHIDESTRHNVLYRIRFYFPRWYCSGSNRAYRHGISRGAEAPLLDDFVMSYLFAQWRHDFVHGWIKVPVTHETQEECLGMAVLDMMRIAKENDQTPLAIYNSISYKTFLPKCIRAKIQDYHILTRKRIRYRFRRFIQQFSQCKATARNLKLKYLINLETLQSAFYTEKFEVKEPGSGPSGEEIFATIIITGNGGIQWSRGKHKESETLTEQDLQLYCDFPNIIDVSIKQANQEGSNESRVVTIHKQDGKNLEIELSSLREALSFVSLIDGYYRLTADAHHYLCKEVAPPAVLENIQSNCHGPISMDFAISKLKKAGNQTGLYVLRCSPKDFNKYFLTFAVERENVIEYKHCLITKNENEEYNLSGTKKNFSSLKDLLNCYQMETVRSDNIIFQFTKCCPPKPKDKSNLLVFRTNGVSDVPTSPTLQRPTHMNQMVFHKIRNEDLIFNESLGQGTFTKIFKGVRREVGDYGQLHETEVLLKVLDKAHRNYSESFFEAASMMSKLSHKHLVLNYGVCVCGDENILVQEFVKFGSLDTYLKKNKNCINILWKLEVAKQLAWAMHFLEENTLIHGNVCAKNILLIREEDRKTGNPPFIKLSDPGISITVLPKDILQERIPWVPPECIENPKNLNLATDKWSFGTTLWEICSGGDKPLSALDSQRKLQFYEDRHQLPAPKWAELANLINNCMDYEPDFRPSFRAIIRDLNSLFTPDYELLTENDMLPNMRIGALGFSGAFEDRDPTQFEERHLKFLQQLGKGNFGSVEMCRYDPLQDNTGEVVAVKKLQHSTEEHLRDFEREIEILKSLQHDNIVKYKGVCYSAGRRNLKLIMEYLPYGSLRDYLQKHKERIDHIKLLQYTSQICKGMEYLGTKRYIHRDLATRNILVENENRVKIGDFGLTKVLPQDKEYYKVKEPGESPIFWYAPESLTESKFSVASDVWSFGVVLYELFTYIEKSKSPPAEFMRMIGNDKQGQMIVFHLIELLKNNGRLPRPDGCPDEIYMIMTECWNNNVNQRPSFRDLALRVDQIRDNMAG
T4 sequence (P29597 whole entry): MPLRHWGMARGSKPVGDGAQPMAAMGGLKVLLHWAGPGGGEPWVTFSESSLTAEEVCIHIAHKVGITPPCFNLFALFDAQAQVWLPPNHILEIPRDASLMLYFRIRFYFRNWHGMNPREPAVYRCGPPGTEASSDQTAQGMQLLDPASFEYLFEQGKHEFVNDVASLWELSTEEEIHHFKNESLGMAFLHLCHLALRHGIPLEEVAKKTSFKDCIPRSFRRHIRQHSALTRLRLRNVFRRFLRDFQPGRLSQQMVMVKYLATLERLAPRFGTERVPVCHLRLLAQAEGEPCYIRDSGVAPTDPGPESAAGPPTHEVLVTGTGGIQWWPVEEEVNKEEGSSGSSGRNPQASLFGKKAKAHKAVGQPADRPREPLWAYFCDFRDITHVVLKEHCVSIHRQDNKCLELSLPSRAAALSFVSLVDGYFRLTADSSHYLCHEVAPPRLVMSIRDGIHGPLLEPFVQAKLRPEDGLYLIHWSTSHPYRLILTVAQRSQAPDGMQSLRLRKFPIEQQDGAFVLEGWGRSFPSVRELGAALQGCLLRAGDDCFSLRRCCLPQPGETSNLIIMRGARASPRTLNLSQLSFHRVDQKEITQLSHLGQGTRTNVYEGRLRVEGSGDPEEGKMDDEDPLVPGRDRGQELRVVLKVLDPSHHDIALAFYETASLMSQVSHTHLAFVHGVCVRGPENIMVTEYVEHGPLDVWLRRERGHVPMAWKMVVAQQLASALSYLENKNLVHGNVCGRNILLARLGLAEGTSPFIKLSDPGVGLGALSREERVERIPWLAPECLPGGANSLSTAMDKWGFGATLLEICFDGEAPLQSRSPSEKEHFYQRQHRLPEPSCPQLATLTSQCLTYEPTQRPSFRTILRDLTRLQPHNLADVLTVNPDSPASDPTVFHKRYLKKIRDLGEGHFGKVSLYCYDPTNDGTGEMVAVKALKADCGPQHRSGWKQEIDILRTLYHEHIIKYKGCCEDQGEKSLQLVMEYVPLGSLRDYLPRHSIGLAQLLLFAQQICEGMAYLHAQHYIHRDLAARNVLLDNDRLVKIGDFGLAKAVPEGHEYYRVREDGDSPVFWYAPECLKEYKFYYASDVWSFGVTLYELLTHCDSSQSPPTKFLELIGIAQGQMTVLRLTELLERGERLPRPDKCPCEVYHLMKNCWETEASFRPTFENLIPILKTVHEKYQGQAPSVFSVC
T1 sequence (P23458 whole entry): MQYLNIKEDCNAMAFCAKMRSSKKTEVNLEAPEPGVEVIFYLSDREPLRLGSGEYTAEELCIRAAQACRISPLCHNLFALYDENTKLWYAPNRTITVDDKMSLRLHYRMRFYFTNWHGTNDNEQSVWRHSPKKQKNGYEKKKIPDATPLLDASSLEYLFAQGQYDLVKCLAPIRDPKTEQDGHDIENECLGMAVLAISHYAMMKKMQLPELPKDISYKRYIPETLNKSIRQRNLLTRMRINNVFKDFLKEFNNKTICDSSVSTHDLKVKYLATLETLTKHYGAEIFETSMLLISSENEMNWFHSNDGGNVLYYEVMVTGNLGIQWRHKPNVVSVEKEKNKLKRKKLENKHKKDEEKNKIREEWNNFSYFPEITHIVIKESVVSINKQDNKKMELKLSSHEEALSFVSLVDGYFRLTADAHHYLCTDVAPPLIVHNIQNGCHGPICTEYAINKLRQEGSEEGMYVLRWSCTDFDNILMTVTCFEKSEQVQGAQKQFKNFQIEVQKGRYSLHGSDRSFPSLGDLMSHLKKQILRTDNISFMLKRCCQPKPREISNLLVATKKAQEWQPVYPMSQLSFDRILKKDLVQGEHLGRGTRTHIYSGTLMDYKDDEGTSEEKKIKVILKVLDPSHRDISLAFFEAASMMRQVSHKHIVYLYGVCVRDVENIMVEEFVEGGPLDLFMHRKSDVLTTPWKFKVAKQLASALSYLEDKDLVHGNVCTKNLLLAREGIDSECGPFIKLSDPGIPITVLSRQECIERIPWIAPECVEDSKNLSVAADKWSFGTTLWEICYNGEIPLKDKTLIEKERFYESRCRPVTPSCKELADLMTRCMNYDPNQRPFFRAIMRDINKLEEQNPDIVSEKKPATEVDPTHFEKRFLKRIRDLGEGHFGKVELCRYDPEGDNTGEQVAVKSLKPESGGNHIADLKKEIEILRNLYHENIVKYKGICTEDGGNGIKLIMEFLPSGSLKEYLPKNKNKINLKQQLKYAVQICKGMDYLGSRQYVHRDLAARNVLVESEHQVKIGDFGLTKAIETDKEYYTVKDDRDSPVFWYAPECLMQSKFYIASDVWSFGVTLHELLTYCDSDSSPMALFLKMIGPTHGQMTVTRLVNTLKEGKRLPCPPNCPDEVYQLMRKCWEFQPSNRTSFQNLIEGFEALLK
T3 sequence (P52333 whole entry): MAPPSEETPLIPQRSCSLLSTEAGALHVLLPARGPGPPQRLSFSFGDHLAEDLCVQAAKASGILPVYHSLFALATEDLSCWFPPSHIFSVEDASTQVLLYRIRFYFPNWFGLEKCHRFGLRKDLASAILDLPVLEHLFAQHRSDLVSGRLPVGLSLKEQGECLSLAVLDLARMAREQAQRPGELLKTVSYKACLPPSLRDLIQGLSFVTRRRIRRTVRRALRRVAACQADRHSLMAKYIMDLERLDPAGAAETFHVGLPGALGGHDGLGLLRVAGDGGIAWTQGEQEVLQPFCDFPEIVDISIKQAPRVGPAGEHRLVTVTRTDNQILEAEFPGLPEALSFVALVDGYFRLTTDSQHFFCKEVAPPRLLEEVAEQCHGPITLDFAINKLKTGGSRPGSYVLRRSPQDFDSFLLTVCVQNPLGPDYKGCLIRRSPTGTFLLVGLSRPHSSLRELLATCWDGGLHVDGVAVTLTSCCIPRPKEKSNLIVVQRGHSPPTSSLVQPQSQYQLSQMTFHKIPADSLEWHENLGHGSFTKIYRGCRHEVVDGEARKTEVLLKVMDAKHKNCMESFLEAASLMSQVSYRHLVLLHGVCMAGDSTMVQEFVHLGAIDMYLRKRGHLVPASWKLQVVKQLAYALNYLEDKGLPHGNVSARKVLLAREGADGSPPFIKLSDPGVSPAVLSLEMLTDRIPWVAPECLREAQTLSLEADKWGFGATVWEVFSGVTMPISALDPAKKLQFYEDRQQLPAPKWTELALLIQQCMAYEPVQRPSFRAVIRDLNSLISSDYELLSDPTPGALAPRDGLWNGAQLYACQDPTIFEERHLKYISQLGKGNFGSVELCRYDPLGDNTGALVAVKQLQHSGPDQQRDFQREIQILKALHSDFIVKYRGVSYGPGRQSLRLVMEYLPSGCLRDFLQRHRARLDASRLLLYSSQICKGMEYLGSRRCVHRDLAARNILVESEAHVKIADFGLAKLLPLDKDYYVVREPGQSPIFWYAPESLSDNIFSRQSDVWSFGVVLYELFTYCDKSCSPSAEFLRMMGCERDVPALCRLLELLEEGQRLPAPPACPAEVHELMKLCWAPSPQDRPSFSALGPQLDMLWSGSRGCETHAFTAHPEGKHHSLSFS

With `CN(c1ncnc2[nH]ccc12)[C@H]1CN(S(=O)(=O)c2cccc(C#N)c2)CC12CC2` [Example 41, (R)-3-((7-(methyl(7H-pyrrolo[2,3-d]pyrimidin-4-yl)amino)-5-azaspiro[2.4]heptan-5-yl)sulfonyl)benzonitrile], the inhibition at 1 µM on Human JAK1 [1] amounted to 99%; on Human JAK2 [2], 99%; at Human JAK3 [3] it was 77%; on Human TYK2 [4], 97%. Also, the pIC50 on Human JAK1 [5] was 8.24; against Human JAK2 [6], 7.23; on Human JAK3 [7], 6.96; against Human TYK2 [8], 7.61.

For the compound `CN(c1ncnc2[nH]ccc12)C1CN(C(=O)CC#N)CC12CC2` (racemic) [Example 55, 3-(7-(methyl(7H-pyrrolo[2,3-d]pyrimidin-4-yl)amino)-5-azaspiro[2.4]heptan-5-yl)-3-oxopropanenitrile], the inhibition at 1 µM turned out to be 95% at Human JAK1 [1], 53% on Human JAK2 [2], 30% on Human JAK3 [3] and 58% on Human TYK2 [4]. Besides, the negative-log IC50 (pIC50) was 7.53 against Human JAK1 [5], 6.83 against Human JAK2 [6], 6.16 at Human JAK3 [7] and 7.39 against Human TYK2 [8].

For the compound `CCS(=O)(=O)N1CC(N(C)c2ncnc3[nH]ccc23)C2(CC2)C1` (racemic) [Example 62, N-(5-(ethylsulfonyl)-5-azaspiro[2.4]heptan-7-yl)-N-methyl-7H-pyrrolo[2,3-d]pyrimidin-4-amine], the inhibition at 1 µM on Human JAK1 [1] came to 95%; at Human JAK2 [2] it was 59%; at Human JAK3 [3] it was 59%; on Human TYK2 [4], 67%. The pIC50 was 8.55 at Human JAK1 [5], 6.37 at Human JAK2 [6], under 6.00 against Human JAK3 [7] and 6.70 against Human TYK2 [8].

Turning to `C[C@@H]1CCN(C(=O)CC#N)C[C@@H]1N(C)c1ncnc2[nH]ccc12` [tofacitinib citrate, reference compound], the inhibition at 1 µM on Human TYK2 [8] (read-out: TYK2 kinase-phosphorylation inhibitory level (% inhibition)) was 100%.

As to `CC(=O)NCC(=O)N1C[C@H](N(C)c2ncnc3[nH]ccc23)C2(CC2)C1` [Example 7, (R)-N-(2-(7-(methyl(7H-pyrrolo[2,3-d]pyrimidin-4-yl)amino)-5-azaspiro[2.4]heptan-5-yl)-2-oxoethyl)acetamide], the inhibition at 1 µM is 70% at Human JAK1 [1], -17% at Human JAK2 [2], 8% on Human JAK3 [3] and 8% on Human TYK2 [4].

`CN(c1ncnc2[nH]ccc12)[C@H]1CN(C(=O)C2CC2)CC12CC2` [Example 9, (R)-cyclopropyl(7-(methyl(7H-pyrrolo[2,3-d]pyrimidin-4-yl)amino)-5-azaspiro[2.4]heptan-5-yl)methanone]: the inhibition at 1 µM turned out to be 90% at Human JAK1 [1], 10% on Human JAK2 [2], 13% on Human JAK3 [3] and 70% at Human TYK2 [4].

Regarding `CN(c1ncnc2[nH]ccc12)[C@H]1CN(C(=O)Nc2ccccc2-c2ccccc2)CC12CC2` [Example 30, (R)-N-([1,1′-biphenyl]-2-yl)-7-(methyl(7H-pyrrolo[2,3-d]pyrimidin-4-yl)amino)-5-azaspiro[2.4]heptane-5-carboxamide], the inhibition at 1 µM at Human JAK1 [1] is 80%; on Human JAK2 [2], -11%; on Human JAK3 [3] it was 14%; on Human TYK2 [4], 27%.

Turning to `CN(c1ncnc2[nH]ccc12)[C@@H]1CN(C(=O)CC#N)CC12CC2` [Example 66, (S)-3-(7-(methyl(7H-pyrrolo[2,3-d]pyrimidin-4-yl)amino)-5-azaspiro[2.4]heptan-5-yl)-3-oxopropanenitrile], the inhibition at 1 µM at Human JAK1 [1] was 65%; on Human JAK2 [2] it was -15%; on Human JAK3 [3], 17%; on Human TYK2 [4], -16%. The pIC50 was 6.10 on Human JAK1 [5], under 6.00 against Human JAK2 [6], under 6.00 against Human JAK3 [7] and under 6.00 against Human TYK2 [8].

Take `CC(C)S(=O)(=O)N1C[C@H](N(C)c2ncnc3[nH]ccc23)C2(CC2)C1` [Example 34, (R)-N-(5-(isopropylsulfonyl)-5-azaspiro[2.4]heptan-7-yl)-N-methyl-7H-pyrrolo[2,3-d]pyrimidin-4-amine]: the inhibition at 1 µM on Human JAK1 [1] was 97%; on Human JAK2 [2] it was 76%; at Human JAK3 [3] it was 56%; at Human TYK2 [4] it was 72%.

Consider `CN(c1ncnc2[nH]ccc12)[C@H]1CN(S(=O)(=O)c2ccc3ccccc3c2)CC12CC2` [Example 49, (R)-N-methyl-N-(5-(naphthalen-2-ylsulfonyI)-5-azaspiro[2.4]heptan-7-yl)-7H-pyrrolo[2,3-d]pyrimidin-4-amine], for which the inhibition at 1 µM at Human JAK1 [1] was determined as 98%; at Human JAK2 [2] it was 65%; at Human JAK3 [3], 55%; on Human TYK2 [4], 75%.

For `CCS(=O)(=O)N1C[C@@H](N(C)c2ncnc3[nH]ccc23)C2(CC2)C1` [Example 71, (S)-N-(5-(ethylsulfonyl)-5-azaspiro[2.4]heptan-7-yl)-N-methyl-7H-pyrrolo[2,3-d]pyrimidin-4-amine], the inhibition at 1 µM was 40% on Human JAK1 [1], 13% on Human JAK2 [2], -22% on Human JAK3 [3] and 12% at Human TYK2 [4].

Consider `CN(c1ncnc2[nH]ccc12)[C@H]1CN(C(=O)c2ccco2)CC12CC2` [Example 11, (R)-furan-2-yl(7-(methyl(7H-pyrrolo[2,3-d]pyrimidin-4-yl)amino)-5-azaspiro[2.4]heptan-5-yl)methanone], for which the inhibition at 1 µM on Human JAK1 [1] turned out to be 93%; at Human JAK2 [2], 10%; at Human JAK3 [3], 15%; on Human TYK2 [4], 61%.

For the compound `CCCCNC(=O)N1C[C@H](N(C)c2ncnc3[nH]ccc23)C2(CC2)C1` [Example 21, (R)-N-butyl-7-(methyl(7H-pyrrolo[2,3-d]pyrimidin-4-yl)amino)-5-azaspiro[2.4]heptane-5-carboxamide], the inhibition at 1 µM at Human JAK1 [1] was 94%; at Human JAK2 [2], -3%; at Human JAK3 [3], 31%; on Human TYK2 [4] it was 30%.

In the case of `CCCCCN1C[C@H](N(C)c2ncnc3[nH]ccc23)C2(CC2)C1` [Example 2, (R)-N-methyl-N-(5-pentyl-5-azaspiro[2.4]heptan-7-yl)-7H-pyrrolo[2,3-d]pyrimidin-4-amine], the inhibition at 1 µM was 77% on Human JAK1 [1], -19% on Human JAK2 [2], 7% at Human JAK3 [3] and 3% at Human TYK2 [4].

With `CN(c1ncnc2[nH]ccc12)[C@H]1CN(S(=O)(=O)N2CCCCC2)CC12CC2` [Example 50, (R)-N-methyl-N-(5-(piperidin-1-ylsulfonyl)-5-azaspiro[2.4]heptan-7-yl)-7H-pyrrolo[2,3-d]pyrimidin-4-amine], the inhibition at 1 µM on Human JAK1 [1] worked out at 98%; at Human JAK2 [2], 56%; on Human JAK3 [3], 60%; on Human TYK2 [4] it was 81%.

Turning to `CN(c1ncnc2[nH]ccc12)[C@H]1CN(S(=O)(=O)N2CCOCC2)CC12CC2` [Example 51, (R)-N-methyl-N-(5-(morpholinosulfonyl)-5-azaspiro[2.4]heptan-7-yl)-7H-pyrrolo[2,3-d]pyrimidin-4-amine], the inhibition at 1 µM amounted to 97% on Human JAK1 [1], 60% at Human JAK2 [2], 49% on Human JAK3 [3] and 69% on Human TYK2 [4].

`CN(c1ncnc2[nH]ccc12)[C@H]1CN(S(=O)(=O)c2cccc([N+](=O)[O-])c2)CC12CC2` [Example 44, (R)-N-methyl-N-(5-((3-nitrophenyl)sulfonyl)-5-azaspiro[2.4]heptan-7-yl)-7H-pyrrolo[2,3-d]pyrimidin-4-amine]: the inhibition at 1 µM on Human JAK1 [1] came out at 100%; at Human JAK2 [2] it was 96%; on Human JAK3 [3], 96%; at Human TYK2 [4], 98%.

On to `CN(c1ncnc2[nH]ccc12)[C@H]1CN(C(=O)NC2CCCCC2)CC12CC2` [Example 22, (R)-N-cyclohexyl-7-(methyl(7H-pyrrolo[2,3-d]pyrimidin-4-yl)amino)-5-azaspiro[2.4]heptane-5-carboxamide], for which the inhibition at 1 µM at Human JAK1 [1] was 90%; on Human JAK2 [2], -5%; on Human JAK3 [3], 16%; at Human TYK2 [4], 15%.
